The values that follow come from patent US9745360B2 (Sanofi, priority 2012, dated 2017).

Read-outs that look alike come from different tables or passages of the source. *1 amine or outer side, *2 acyl side, *3 side chain or, on linkers, in order; H or OH if unused. Where a SMILES comes first, the peptide text is derived from it. Side-chain parts run from the residue outwards. [ ]: non-standard residue; d: D form. The star is where a group is joined. γGlu = O=C(O)[C@H](CCC(=O)[*:2])N[*:1]; Stearoyl = CCCCCCCCCCCCCCCCCC(=O)*; Palmitoyl = CCCCCCCCCCCCCCCC(=O)*; d(αMeK) = C[C@@](N)(CCCCN)C(=O)O; αMeOrn = C[C@](N)(CCCN)C(=O)O; αMeK = C[C@](N)(CCCCN)C(=O)O; Api = NC1(C(=O)O)CCNCC1; Aib = CC(C)(N)C(=O)O

Data set [1] in a line: Solubility testing in buffer, HPLC-UV of supernatant. Format: physicochemical. The following applies: target concentration 1.0 mg/mL. As for the experimental part: (§1) Solubility and chemical stability of peptidic compounds were assessed as described in Methods.
Data set [2] concerns the target T1, human GIP receptor (hGIP R) (Homo sapiens, UniProt P48546).
T1 construct: expressed in transfected cells
T1 sequence (P48546 22-466): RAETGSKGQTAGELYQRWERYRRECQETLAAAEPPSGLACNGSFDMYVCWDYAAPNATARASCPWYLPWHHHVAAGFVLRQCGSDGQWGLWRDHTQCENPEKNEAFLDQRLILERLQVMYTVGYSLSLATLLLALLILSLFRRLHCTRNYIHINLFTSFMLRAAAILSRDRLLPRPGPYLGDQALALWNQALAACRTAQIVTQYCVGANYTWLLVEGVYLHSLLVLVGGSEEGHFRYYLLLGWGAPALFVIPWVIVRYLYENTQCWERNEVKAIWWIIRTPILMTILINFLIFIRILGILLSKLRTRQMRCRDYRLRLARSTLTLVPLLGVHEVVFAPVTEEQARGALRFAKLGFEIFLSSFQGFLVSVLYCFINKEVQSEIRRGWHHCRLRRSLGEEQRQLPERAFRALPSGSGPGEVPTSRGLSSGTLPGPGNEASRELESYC
The data set is described as follows: cAMP response (HTRF) of HEK-293 cells stably expressing human GIP receptor. It is filed as cell-based. The following applies: Table 7; cAMP formation. On the procedure: (§2) cAMP content of cells was determined using a kit from Cisbio Corp. (cat. no. 62AM4PEC) based on HTRF (Homogenous Time Resolved Fluorescence). For preparation, cells were split into T175 culture flasks and grown overnight to near confluency in medium (DMEM/10% FBS). Medium was then removed and cells washed with PBS lacking calcium and magnesium, followed by proteinase treatment with accutase (Sigma-Aldrich cat. no. A6964). Detached cells were washed and resuspended in assay buffer (1×HBSS; 20 mM HEPES, 0.1% BSA, 2 mM IBMX) and cellular density determined. They were then diluted to 400000 cells/ml and 25 μl-aliquots dispensed into the wells of 96-well plates. For measurement, 25 μl of test compound in assay buffer was added to the wells, followed by incubation for 30 minutes at room temperature.

A short description of data set [3]: Chemical stability in solution, 7 days at 25° C., % remaining peptide. It is filed as physicochemical. The following applies: % remaining peptide after 7 days at 25° C. On the procedure: The chemical stability is expressed as “% remaining peptide”.
as §1

Data set [4] concerns the target T2, human GLP-1 receptor (hGLP-1 R) (Homo sapiens, UniProt P43220).
T2 construct: expressed in transfected cells
Nature of the data set: cAMP response (HTRF) of HEK-293 cells stably expressing human GLP-1 receptor. It is filed as cell-based. The following applies: Table 7; cAMP formation. On the procedure:
as §2

T2 sequence (P43220 24-463): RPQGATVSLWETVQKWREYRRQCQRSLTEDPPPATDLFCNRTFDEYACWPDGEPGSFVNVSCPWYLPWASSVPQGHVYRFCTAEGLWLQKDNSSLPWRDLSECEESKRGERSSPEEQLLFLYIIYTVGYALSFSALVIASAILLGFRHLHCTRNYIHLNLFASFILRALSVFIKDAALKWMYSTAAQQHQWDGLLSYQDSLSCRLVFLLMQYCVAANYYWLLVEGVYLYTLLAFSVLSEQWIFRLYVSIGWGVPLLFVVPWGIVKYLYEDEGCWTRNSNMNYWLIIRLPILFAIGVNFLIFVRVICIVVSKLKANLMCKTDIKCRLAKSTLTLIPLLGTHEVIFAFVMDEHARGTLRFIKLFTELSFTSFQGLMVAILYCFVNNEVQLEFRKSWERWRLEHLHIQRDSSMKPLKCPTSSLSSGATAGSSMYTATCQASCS

For orientation: solubility means the dissolved amount per volume that the medium holds. The term EC50 denotes the concentration needed to bring the measured effect to its halfway point. High values mean lower potency in that assay, low ones higher potency in that assay. As for `CCCCCCCCCCCCCCCC(=O)N[C@@H](CCC(=O)NCCCC[C@H](NC(=O)[C@H](CCC(N)=O)NC(=O)[C@@H](NC(=O)[C@H](CO)NC(=O)[C@H](CC(C)C)NC(=O)[C@H](CC(=O)O)NC(=O)[C@H](CO)NC(=O)[C@@H](NC(=O)[C@H](Cc1ccccc1)NC(=O)[C@@H](NC(=O)CNC(=O)[C@H](CCC(=O)O)NC(=O)C(C)(C)NC(=O)[C@@H](N)Cc1ccc(O)cc1)[C@@H](C)O)[C@@H](C)O)[C@@H](C)CC)C(=O)N[C@@H](CCC(=O)O)C(=O)N[C@@H](CCC(=O)O)C(=O)N[C@@H](CCCNC(=N)N)C(=O)N[C@@H](C)C(=O)N[C@@H](C)C(=O)NC1(C(=O)N[C@@H](CCC(=O)O)C(=O)N[C@@H](Cc2ccccc2)C(=O)N[C@H](C(=O)N[C@@H](CCC(=O)O)C(=O)N[C@@H](Cc2c[nH]c3ccccc23)C(=O)N[C@@H](CC(C)C)C(=O)N[C@@H](CCCCN)C(=O)N[C@@H](CC(N)=O)C(=O)N[C@H](C(=O)NCC(=O)N2CCC[C@H]2C(=O)N[C@@H](CO)C(=O)N[C@@H](CO)C(=O)NCC(=O)N[C@@H](C)C(=O)N2CCC[C@H]2C(=O)N2CCC[C@H]2C(=O)N2CCC[C@H]2C(=O)N[C@@H](CO)C(N)=O)[C@@H](C)O)[C@@H](C)CC)CCNCC1)C(=O)O` [SEQ ID NO: 8, Y-Aib-E-G-T-F-T-S-D-L-S-I-Q-K(γE-x53)-E-E-R-A-A-Pip-E-F-I-E-W-L-K-N-T-G-P-S-S-G-A-P-P-P-S-NH2] (H-Y[Aib]EGTFTSDLSIQK([γGlu-Palmitoyl])EERAA[Api]EFIEWLKNTGPSSGAPPPS-NH2), the solubility in data set [1] (pH 4.5, read-out: Solubility (pH 4.5)) was greater than 1000 µg/mL; in data set [1] (pH 7.4, read-out: Solubility (pH 7.4)), greater than 1000 µg/mL. This molecule displayed an EC50 in data set [2] of 16.3 pM. The “Stability (pH 4.5)” value in data set [3] (pH 4.5) is 93.0%. In addition, the “Stability (pH 7.4)” value in data set [3] (pH 7.4) worked out at 93.0%.

Regarding `CCCCCCCCCCCCCCCC(=O)N[C@@H](CCC(=O)NCCCC[C@H](NC(=O)[C@H](CCC(N)=O)NC(=O)[C@@H](NC(=O)[C@H](CO)NC(=O)[C@H](CC(C)C)NC(=O)[C@H](CC(=O)O)NC(=O)[C@H](CO)NC(=O)[C@@H](NC(=O)[C@H](Cc1ccccc1)NC(=O)[C@@H](NC(=O)CNC(=O)[C@H](CCC(=O)O)NC(=O)C(C)(C)NC(=O)[C@@H](N)Cc1ccc(O)cc1)[C@@H](C)O)[C@@H](C)O)[C@@H](C)CC)C(=O)N[C@@H](CCC(=O)O)C(=O)N[C@@H](CCC(=O)O)C(=O)N[C@@H](CCCNC(=N)N)C(=O)N[C@@H](C)C(=O)N[C@@H](C)C(=O)N[C@@](C)(CCCN)C(=O)N[C@@H](CCC(=O)O)C(=O)N[C@@H](Cc1ccccc1)C(=O)N[C@H](C(=O)N[C@@H](CCC(=O)O)C(=O)N[C@@H](Cc1c[nH]c2ccccc12)C(=O)N[C@@H](CC(C)C)C(=O)N[C@@H](CCCCN)C(=O)N[C@@H](CC(N)=O)C(=O)N[C@H](C(=O)NCC(=O)N1CCC[C@H]1C(=O)N[C@@H](CO)C(=O)N[C@@H](CO)C(=O)NCC(=O)N[C@@H](C)C(=O)N1CCC[C@H]1C(=O)N1CCC[C@H]1C(=O)N1CCC[C@H]1C(=O)N[C@@H](CO)C(N)=O)[C@@H](C)O)[C@@H](C)CC)C(=O)O` [SEQ ID NO: 10, Y-Aib-E-G-T-F-T-S-D-L-S-I-Q-K(γE-x53)-E-E-R-A-A-(S)MeOrn-E-F-I-E-W-L-K-N-T-G-P-S-S-G-A-P-P-P-S-NH2] (H-Y[Aib]EGTFTSDLSIQK([γGlu-Palmitoyl])EERAA[αMeOrn]EFIEWLKNTGPSSGAPPPS-NH2), the EC50 in data set [2] came out at 7.1 pM; in data set [4] it was 4.9 pM.

The molecule `CCCCCCCCCCCCCCCCCC(=O)N[C@@H](CCC(=O)NCCCC[C@H](NC(=O)[C@H](CCC(N)=O)NC(=O)[C@@H](NC(=O)[C@H](CO)NC(=O)[C@H](CC(C)C)NC(=O)[C@H](CC(=O)O)NC(=O)[C@H](CO)NC(=O)[C@@H](NC(=O)[C@H](Cc1ccccc1)NC(=O)[C@@H](NC(=O)CNC(=O)[C@H](CCC(N)=O)NC(=O)C(C)(C)NC(=O)[C@@H](N)Cc1ccc(O)cc1)[C@@H](C)O)[C@@H](C)O)[C@@H](C)CC)C(=O)N[C@@H](CC(=O)O)C(=O)N[C@@H](CCC(=O)O)C(=O)N[C@@H](CCC(N)=O)C(=O)N[C@@H](CCCNC(=N)N)C(=O)N[C@@H](C)C(=O)N[C@](C)(CCCCN)C(=O)N[C@@H](CCC(=O)O)C(=O)N[C@@H](Cc1ccccc1)C(=O)N[C@H](C(=O)N[C@@H](CCC(=O)O)C(=O)N[C@@H](Cc1c[nH]c2ccccc12)C(=O)N[C@@H](CC(C)C)C(=O)N[C@@H](CCCCN)C(=O)N[C@@H](CO)C(=O)NCC(=O)NCC(=O)N1CCC[C@H]1C(=O)N[C@@H](CO)C(=O)N[C@@H](CO)C(=O)NCC(=O)N[C@@H](C)C(=O)N1CCC[C@H]1C(=O)N1CCC[C@H]1C(=O)N1CCC[C@H]1C(=O)N[C@@H](CO)C(N)=O)[C@@H](C)CC)C(=O)O` [SEQ ID NO: 13, Y-Aib-Q-G-T-F-T-S-D-L-S-I-Q-K(γE-x70)-D-E-Q-R-A-(R)MeLys-E-F-I-E-W-L-K-S-G-G-P-S-S-G-A-P-P-P-S-NH2] (H-Y[Aib]QGTFTSDLSIQK([γGlu-Stearoyl])DEQRA[d(αMeK)]EFIEWLKSGGPSSGAPPPS-NH2) displayed an EC50 in data set [4] of 13.6 pM. This lies in the picomolar range.

`CCCCCCCCCCCCCCCCCC(=O)N[C@@H](CCC(=O)NCCCC[C@H](NC(=O)[C@H](CCC(N)=O)NC(=O)[C@@H](NC(=O)[C@H](CO)NC(=O)[C@H](CC(C)C)NC(=O)[C@H](CC(=O)O)NC(=O)[C@H](CO)NC(=O)[C@@H](NC(=O)[C@H](Cc1ccccc1)NC(=O)[C@@H](NC(=O)CNC(=O)[C@H](CCC(=O)O)NC(=O)C(C)(C)NC(=O)[C@@H](N)Cc1ccc(O)cc1)[C@@H](C)O)[C@@H](C)O)[C@@H](C)CC)C(=O)N[C@@H](CC(=O)O)C(=O)N[C@@H](CCC(=O)O)C(=O)N[C@@H](CCCNC(=N)N)C(=O)N[C@@H](C)C(=O)N[C@@H](C)C(=O)N[C@@](C)(CCCCN)C(=O)N[C@@H](CCC(=O)O)C(=O)N[C@@H](Cc1ccccc1)C(=O)N[C@H](C(=O)N[C@@H](CCC(=O)O)C(=O)N[C@@H](Cc1c[nH]c2ccccc12)C(=O)N[C@@H](CC(C)C)C(=O)N[C@@H](CCCCN)C(=O)N[C@@H](CC(N)=O)C(=O)N[C@H](C(=O)NCC(=O)N1CCC[C@H]1C(=O)N[C@@H](CO)C(=O)N[C@@H](CO)C(=O)NCC(=O)N[C@@H](C)C(=O)N1CCC[C@H]1C(=O)N1CCC[C@H]1C(=O)N1CCC[C@H]1C(=O)N[C@@H](CO)C(N)=O)[C@@H](C)O)[C@@H](C)CC)C(=O)O` [SEQ ID NO: 14, Y-Aib-E-G-T-F-T-S-D-L-S-I-Q-K(γE-x70)-D-E-R-A-A-(S)MeLys-E-F-I-E-W-L-K-N-T-G-P-S-S-G-A-P-P-P-S-NH2] (H-Y[Aib]EGTFTSDLSIQK([γGlu-Stearoyl])DERAA[αMeK]EFIEWLKNTGPSSGAPPPS-NH2) had a concentration for a half-maximal effect (EC50) in data set [4] of 7.2 pM.
